What was measured:
[1] = test system: paresis/paralysis; conditions: immediate or sustained release formulations; earlier application; cited from earlier work
[2] = test system: central pain in MS patients; conditions: intravenous 1.0 mg/ml morphine in physiological saline, response only after high doses; cited from earlier work
[3] = test system: MS, Lou Gherig's Disease and Parkinson's Disease; conditions: in vivo; cited from earlier work
[4] = test system: paresis/paralysis of the tongue, larynx, pharynx, esophagus, urinary bladder sphincter, muscles of the lumbar and lumbo-sacral spine and of the pelvis and …; test: Opiate treatment of dogs with neuropathic paresis/paralysis (UROS/OPS case studies); conditions: dog, in vivo
Text: In order to clinically diagnose and/or evaluate the effectiveness of a dose of an anti-opiopathic active agent or formulation, over time, when being used to treat an opiopathic ailment, the following grading protocol can be employed to quantify and document function of the target muscle(s) and/or organ(s).
In grading the evaluations, an organ is considered to be neurologically normal when there is no neuropathology affecting its function. Because in most cases an organ can be clearly identified as having normal neurologic function, decreased neurologic function (paresis), or no neurologic function (paralysis), the documenting of the degree of remaining neurologic function of an organ lends itself to a simple grading system. An organ that functions normally and has no observable signs or symptoms is considered to be neurologically normal and receives the lowest score (0). An organ that has no function as a result of a neurologic/neurogenic ailment and is paralyzed, receives the highest score (10). An organ that has a partial loss of function (paresis) receives a score between (1) and (9), depending on the degree of function remaining. A decrease of the score of a function after administration of an anti-opiopathic active agent or formulation, indicates effectiveness roughly proportional to the relative decrease. […]

COc1ccc2c3c1O[C@H]1C(=O)CC[C@H]4[C@@H](C2)N(C)CC[C@]314 [hydrocodone]
reversal of paresis/paralysis [1]: successful reversal

CN1CC[C@]23c4c5ccc(O)c4O[C@H]2[C@@H](O)C=C[C@H]3[C@H]1C5.O=S(=O)(O)O [morphine sulfate]
reversal of paresis/paralysis [1]: successful reversal

CN1CC[C@]23c4c5ccc(O)c4O[C@H]2[C@@H](O)C=C[C@H]3[C@H]1C5 [morphine]
responsiveness of neuropathic (central) pain [2]: poorly responsive, but not totally unresponsive

O=C1CC[C@@]2(O)[C@H]3Cc4ccc(O)c5c4[C@@]2(CCN3CC2CC2)[C@H]1O5 [naltrexone]
treatment outcome [3]: limited success

COc1ccc2c3c1O[C@H]1C(=O)CC[C@@]4(O)[C@@H](C2)N(C)CC[C@]314 [oxycodone]
reversal of paresis/paralysis [1]: successful reversal | reversing paresis/paralysis in the larynx [4]: effective | treating urinary bladder sphincter paresis/paralysis [4]: effective

Reference: patent US20070232638A1, “Opiopathies” (priority 2006, published 2007)
